Data on 20 molecules can be found in US11672799B2, “1,4-disubstituted pyridazine quinolne analogs there of and methods for treating SMN-deficiency-related conditions” (Novartis AG, priority 2013, dated 2023).

Read-outs that look alike come from different tables or passages of the source.

This assay concerns SMN protein. Kind of assay: cellular SMN ELISA (SMN protein elevation) in myoblast cell line from SMNdelta7 mouse model. The class given is cell-based. The method, then:
A cellular SMN ELISA was used to measure the effects of low molecular weight compounds on SMN protein elevation. Cells from a myoblast cell line derived from the SMNdelta7 mouse model (kind gift from Steve Burden, NYU) were seeded into a 384-well plate at a density of 3000 cells/well and treated with compounds for 24 hours. ELISA capture plates were prepared by coating 384-well plates (Immulon 4HBX) with 0.5 ug/mL of anti-SMN mAb (BD Science, Catalog number 610647) at 4° C. overnight. The plates were washed 5 times with 110 uL of PBS-Tween (0.05% Tween-20, PBST), blocked with 100 uL of 1% BSA in PBST for 2 hours and washed (5 times) with 100 uL of PBST. After 24 hours of compound treatment cells were lysed in a modified RIPA-buffer, on ice for 1 hour. 20 uL of lysate and 20 uL of 1% BSA were then added to the ELISA capture plates and incubated at 4° C. overnight. Plates were washed (5 times) with PBST and then incubated with 1:100 dilution of primary rabbit anti-SMN polyclonal antibody (Santa cruz, Catalog number SC-15320) at room temperature for 1 hour and subsequently washed (5 times) with 110 uL of PBST. This was followed by addition of 1:100 Goat anti-Rabbit IgG-HRP linked (Cell Signaling, Catalog number 7074) secondary antibody for 1 hour. Plates were then washed with PBST and incubated with 40 uL TMB substrate (Cell Signaling, Catalog number 7004 L) at room temperature for 1-10 minutes with shaking. The reaction was stopped by addition of 40 uL of stop solution (Cell signaling, Catalog number 7002 L) and absorption was measured at 450 nm. Data was reported as fold activation over DMSO control, and EC50.
ELISA assay condition 1: compound concentration range 20 nM-10 uM; ELISA assay condition 2: compound concentration 100 pM-10 uM. Data generated in Biological Example 1 using ELISA conditions 1 or 2.

Where [1] appears, read: Biological Example 1, SMN ELISA, SMNdelta7 mouse myoblasts, 24 hours compound treatment.
Where [2] appears, read: Biological Example 1, SMN ELISA, SMNdelta7 mouse myoblasts, 24 hours compound treatment, read-out: SMN Activity (EC50).
Setting [3] is: comparison of unsubstituted, ortho-hydroxy and ortho-alkoxy pyridazines, as in Biological Example 1.
[4] abbreviates: comparison of unsubstituted, ortho-hydroxy and ortho-alkoxy pyridazines, as in Biological Example 1, read-out: SMN ELISA EC50.

With `Cc1cc(Cl)c2cc(-c3ccc(N(C)C4CC(C)(C)NC(C)(C)C4)nn3)c(O)cc2n1` [Preparation 11, 4-chloro-2-methyl-6-(6-(methyl(2,2,6,6-tetramethylpiperidin-4-yl)amino)pyridazin-3-yl)quinolin-7-ol], the “SMN Activity (fold activation over DMSO control)” value under setting [1] turned out to be 2.6 fold. For the same molecule, the EC50 (as a rule, the concentration needed to bring the measured effect to its halfway point) under setting [2] is 280 nM.

Consider `CCOc1cc(C)nc2cc(O)c(-c3ccc(N(C)C4CC(C)(C)NC(C)(C)C4)nn3)cc12` [Example 10-5, 4-Ethoxy-2-methyl-6-(6-(methyl(2,2,6,6-tetramethylpiperidin-4-yl)amino)pyridazin-3-yl)quinolin-7-ol], for which, under setting [1], the “SMN Activity (fold activation over DMSO control)” value stood at 3.3 fold. In addition, the concentration giving a half-maximal response (EC50) under setting [2] was determined as 20 nM.

With `Cc1nccc2cc(O)c(-c3ccc(N(C)C4CC(C)(C)NC(C)(C)C4)nn3)cc12` [Example 29-2, 1-methyl-7-(6-(methyl(2,2,6,6-tetramethylpiperidin-4-yl)amino)pyridazin-3-yl)isoquinolin-6-ol], under setting [1], the “SMN Activity (fold activation over DMSO control)” value was 2.53 fold. For the same molecule, under setting [2], the EC50 turned out to be 9 nM.

With `CN(c1ccc(-c2cc3cc(Br)cnc3cc2O)nn1)C1CC(C)(C)NC(C)(C)C1` [Example 7-2, 3-bromo-6-(6-(methyl(2,2,6,6-tetramethylpiperidin-4-yl)amino)pyridazin-3-yl)quinolin-7-ol], under setting [1], the “SMN Activity (fold activation over DMSO control)” value was found to be 2.6 fold. For the same molecule, under setting [2], the half-maximal effective concentration (EC50) was found to be 8 nM.

On to `Cc1cc(-c2cnn(C)c2)c2cc(-c3ccc(N(C)C4CC(C)(C)NC(C)(C)C4)nn3)c(O)cc2n1` [Example 11-1, 2-methyl-6-(6-(methyl(2,2,6,6-tetramethylpiperidin-4-yl)amino)pyridazin-3-yl)-4-(1-methyl-1H-pyrazol-4-yl)quinolin-7-ol], for which, under setting [1], the “SMN Activity (fold activation over DMSO control)” value was found to be 2.6 fold. Moreover, the half-maximal effective concentration (EC50) under setting [2] turned out to be 60 nM.

In the case of `CN(c1ccc(-c2cc3c(=O)nc[nH]c3cc2O)nn1)C1CC(C)(C)NC(C)(C)C1` [Example 22-1, 7-hydroxy-6-(6-(methyl(2,2,6,6-tetramethylpiperidin-4-yl)amino)pyridazin-3-yl)quinazolin-4(1H)-one], the “SMN Activity (fold activation over DMSO control)” value under setting [1] is listed as 2.58 fold. In addition, the EC50 under setting [2] amounted to 110 nM.

Take `Cc1cc(C2COC2)c2cc(-c3ccc(N(C)C4CC(C)(C)NC(C)(C)C4)nn3)c(O)cc2n1` [Example 20-6, 2-methyl-6-(6-(methyl(2,2,6,6-tetramethylpiperidin-4-yl)amino)pyridazin-3-yl)-4-(oxetan-3-yl)quinolin-7-ol]: under setting [1], the “SMN Activity (fold activation over DMSO control)” value is reported as 3.18 fold. Further, the EC50 under setting [2] was 165 nM.

The molecule `CN(c1ccc(-c2ccc3ccncc3c2)nn1)C1CC(C)(C)NC(C)(C)C1` [drawing 137 R = H] yielded a Fold activation under setting [3] of 2.7. Besides, the concentration for a half-maximal effect (EC50) under setting [4] was found to be 250 nM.

As to `Oc1cc2cccnc2cc1-c1ccc(C2=CCNCC2)nn1` [Example 28-1, 7-(6-(1,2,3,6-tetrahydropyridin-4-yl)pyridazin-3-yl)quinolin-6-ol], the “SMN Activity (fold activation over DMSO control)” value under setting [1] amounted to 1.9 fold. Further, the EC50 under setting [2] is 155 nM.

Regarding `CN(c1ccc(-c2cc3cc(-n4ccnc4)cnc3cc2O)nn1)C1CC(C)(C)NC(C)(C)C1` [Example 7-5, 3-(1H-imidazol-1-yl)-6-(6-(methyl(2,2,6,6-tetramethylpiperidin-4-yl)amino)pyridazin-3-yl)quinolin-7-ol], the “SMN Activity (fold activation over DMSO control)” value under setting [1] came to 2.5 fold. For the same molecule, the EC50 under setting [2] is 50 nM.

As for `CN(c1ccc(-c2cc3ccnc(C#N)c3cc2O)nn1)C1CC(C)(C)NC(C)(C)C1` [Example 26-1, 7-hydroxy-6-(6-(methyl(2,2,6,6-tetramethylpiperidin-4-yl)amino)pyridazin-3-yl)isoquinoline-1-carbonitrile], the “SMN Activity (fold activation over DMSO control)” value under setting [1] turned out to be 2.58 fold. Besides, the EC50 under setting [2] was found to be 16 nM.

On to `CN(c1ccc(-c2cc3cccnc3cc2O)nn1)C1CC(C)(C)NC(C)(C)C1` [Example 1-1, 6-(6-(Methyl(2,2,6,6-tetramethylpiperidin-4-yl)amino)pyridazin-3-yl)quinolin-7-ol], for which, under setting [1], the “SMN Activity (fold activation over DMSO control)” value is on record as 2.9 fold. Besides, the EC50 was 20 nM under setting [2] and 20 nM under setting [4]. The same molecule registered a Fold activation under setting [3] of 2.9.

For `Cc1cc(C#N)c2cc(-c3ccc(N(C)C4CC(C)(C)NC(C)(C)C4)nn3)c(O)cc2n1` [Example 20-2, 7-hydroxy-2-methyl-6-(6-(methyl(2,2,6,6-tetramethylpiperidin-4-yl)amino)pyridazin-3-yl)quinoline-4-carbonitrile], under setting [1], the “SMN Activity (fold activation over DMSO control)” value came to 2.68 fold. For the same molecule, the EC50 under setting [2] came out at 48 nM.

Regarding `CN(c1ccc(-c2cc3cc(C#N)cnc3cc2O)nn1)C1CC(C)(C)NC(C)(C)C1` [Example 7-3, 7-hydroxy-6-(6-(methyl(2,2,6,6-tetramethylpiperidin-4-yl)amino)pyridazin-3-yl)quinoline-3-carbonitrile], under setting [1], the “SMN Activity (fold activation over DMSO control)” value is recorded as 3.1 fold. Further, the EC50 under setting [2] worked out at 8 nM.

For the molecule `Cc1cnc2cc(-c3ccc(N(C)C4CC(C)(C)NC(C)(C)C4)nn3)c(O)c(Br)c2c1` [Example 16-1, 5-bromo-3-methyl-7-(6-(methyl(2,2,6,6-tetramethylpiperidin-4-yl)amino)pyridazin-3-yl)quinolin-6-ol], under setting [1], the “SMN Activity (fold activation over DMSO control)” value was 2.44 fold. Under setting [2], the EC50 worked out at 258 nM.

For `CN(c1ccc(-c2cc3cnccc3cc2O)nn1)C1CC(C)(C)NC(C)(C)C1` [Example 3-2, 7-(6-(methyl(2,2,6,6-tetramethylpiperidin-4-yl)amino)pyridazin-3-yl)isoquinolin-6-ol], the “SMN Activity (fold activation over DMSO control)” value under setting [1] is on record as 2.75 fold. Also, the EC50 under setting [2] amounted to 5 nM and the EC50 under setting [4] is 5 nM. In addition, the Fold activation under setting [3] amounted to 2.8.

For `CN(c1ccc(-c2cc3cc(-c4cn(C)cn4)cnc3cc2O)nn1)C1CC(C)(C)NC(C)(C)C1` [Example 7-4, 6-(6-(methyl(2,2,6,6-tetramethylpiperidin-4-yl)amino)pyridazin-3-yl)-3-(1-methyl-1H-imidazol-4-yl)quinolin-7-ol], the “SMN Activity (fold activation over DMSO control)” value under setting [1] worked out at 2.2 fold. For the same molecule, under setting [2], the half-maximal effective concentration (EC50) worked out at 200 nM.

As for `CN(c1ccc(-c2cc3nc(C(N)=O)ccc3cc2O)nn1)C1CC(C)(C)NC(C)(C)C1` [Example 26-6, 6-hydroxy-7-(6-(methyl(2,2,6,6-tetramethylpiperidin-4-yl)amino)pyridazin-3-yl)quinoline-2-carboxamide], under setting [1], the “SMN Activity (fold activation over DMSO control)” value is 2.6 fold. Also, the 50% effective concentration (EC50) under setting [2] came to 7 nM.

Regarding `CN(c1ccc(-c2cc3ncc(Cl)cc3cc2O)nn1)C1CC(C)(C)NC(C)(C)C1` [Example 15-1, 3-chloro-7-(6-(methyl(2,2,6,6-tetramethylpiperidin-4-yl)amino)pyridazin-3-yl)quinolin-6-ol], the “SMN Activity (fold activation over DMSO control)” value under setting [1] was found to be 2.68 fold. Moreover, the concentration giving a half-maximal response (EC50) under setting [2] came to 16 nM.

For the molecule `CN(c1ccc(-c2cc3nccnc3cc2O)nn1)C1CC(C)(C)NC(C)(C)C1` [Example 13-1, 7-(6-(methyl(2,2,6,6-tetramethylpiperidin-4-yl)amino)pyridazin-3-yl)quinoxalin-6-ol], the “SMN Activity (fold activation over DMSO control)” value under setting [1] turned out to be 2.7 fold. Besides, the EC50 is 9 nM under setting [2] and 9 nM under setting [4]. Besides, the Fold activation under setting [3] is listed as 2.7 —.
